Results on one compound are retold here after ChEMBL document CHEMBL4184336, “Structure-Guided Modification of Heterocyclic Antagonists of the P2Y14 Receptor” (J Med Chem, 2018).

In series [1] the target is Cytochrome P450 2C19 (Homo sapiens, UniProt P33261). The experiment in a line: Inhibition of CYP2C19 (unknown origin). Type of series: ADME.
Series [2] is described as follows: Metabolic stability in mouse plasma assessed as parent compound remaining after 120 mins. Type of series: ADME, cell-free. The conditions noted are these: read-out: Stability.
In series [3] the target is Cytochrome P450 2C9 (Homo sapiens, UniProt P11712). As to the kind of experiment: Inhibition of CYP2C9 (unknown origin). Type of series: ADME.
The target in series [4] is Cytochrome P450 1A2 (Homo sapiens, UniProt P05177). As to the kind of experiment: Inhibition of CYP1A2 (unknown origin). Type of series: ADME.
Series [5] in a line: Metabolic stability in rat plasma assessed as parent compound remaining after 120 mins. Type of series: ADME, cell-free. The conditions noted are these: read-out: Stability.
Series [6] in a line: Aqueous solubility of the compound. Type of series: physicochemical. The conditions noted are these: buffer.
Series [7] deals with Cytochrome P450 3A4 (Homo sapiens, UniProt P08684). As to the kind of experiment: Inhibition of CYP3A4 (unknown origin). Type of series: ADME.
The nature of series [8]: Metabolic stability in human plasma assessed as parent compound remaining after 120 mins. The note with it: read-out: Stability. Type of series: ADME, cell-free.
Series [9] addresses Cytochrome P450 2D6 (Homo sapiens, UniProt P10635). As to the kind of experiment: Inhibition of CYP2D6 (unknown origin). Type of series: ADME.
In series [10] the target is Voltage-gated inwardly rectifying potassium channel KCNH2 (Homo sapiens, UniProt Q12809). The experiment in a line: Inhibition of human ERG.
In series [11] the target is T1, P2Y purinoceptor 14 (Homo sapiens, UniProt Q15391).
T1 sequence (Q15391 whole entry): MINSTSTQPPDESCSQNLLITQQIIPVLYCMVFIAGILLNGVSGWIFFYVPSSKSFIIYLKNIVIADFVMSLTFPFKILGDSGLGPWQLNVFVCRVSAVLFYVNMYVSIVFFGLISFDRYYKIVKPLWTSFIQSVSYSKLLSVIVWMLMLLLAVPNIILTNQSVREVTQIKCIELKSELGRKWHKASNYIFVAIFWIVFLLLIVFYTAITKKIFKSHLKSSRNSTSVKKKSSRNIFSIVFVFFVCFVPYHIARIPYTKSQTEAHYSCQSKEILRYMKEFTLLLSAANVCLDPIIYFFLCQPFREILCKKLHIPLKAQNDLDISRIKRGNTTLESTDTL
Description: Displacement of MRS4174 from human P2Y14R expressed in CHO cells preincubated for 30 mins followed by MRS4174 addition measured after 30 mins by flow cytometric method

Series [12] can be described thus: Half life in Sprague-Dawley rat plasma at 0.5 mg/kg, iv. Type of series: ADME, organism-based.
The target of series [13] is Delta-type opioid receptor (Homo sapiens, UniProt P41143). The experiment in a line: Displacement of [3H]-DADLE from human delta opioid receptor expressed in HEK293 cells after 90 mins by scintillation counting method. Type of series: cell-based.
The subject of series [14] is HepG2. As to the kind of experiment: Cytotoxicity against human HepG2 cells. Type of series: cell-based.

Cytochrome P450 1A2, sequence (P05177 whole entry): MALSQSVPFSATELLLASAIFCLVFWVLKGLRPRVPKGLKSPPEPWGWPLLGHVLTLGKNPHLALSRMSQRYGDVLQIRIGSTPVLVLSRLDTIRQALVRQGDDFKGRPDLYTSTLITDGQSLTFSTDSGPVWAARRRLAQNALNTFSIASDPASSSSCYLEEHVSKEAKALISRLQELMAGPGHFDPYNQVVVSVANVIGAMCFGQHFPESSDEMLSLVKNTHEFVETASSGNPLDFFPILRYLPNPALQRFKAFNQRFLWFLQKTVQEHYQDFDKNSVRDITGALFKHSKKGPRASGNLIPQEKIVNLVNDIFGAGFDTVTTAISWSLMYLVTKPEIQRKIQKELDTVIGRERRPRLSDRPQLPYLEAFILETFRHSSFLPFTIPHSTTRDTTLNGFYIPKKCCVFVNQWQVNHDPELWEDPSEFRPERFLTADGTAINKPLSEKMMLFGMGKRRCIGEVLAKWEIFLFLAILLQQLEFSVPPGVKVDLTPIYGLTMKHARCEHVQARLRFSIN
Cytochrome P450 2D6, sequence (P10635 whole entry): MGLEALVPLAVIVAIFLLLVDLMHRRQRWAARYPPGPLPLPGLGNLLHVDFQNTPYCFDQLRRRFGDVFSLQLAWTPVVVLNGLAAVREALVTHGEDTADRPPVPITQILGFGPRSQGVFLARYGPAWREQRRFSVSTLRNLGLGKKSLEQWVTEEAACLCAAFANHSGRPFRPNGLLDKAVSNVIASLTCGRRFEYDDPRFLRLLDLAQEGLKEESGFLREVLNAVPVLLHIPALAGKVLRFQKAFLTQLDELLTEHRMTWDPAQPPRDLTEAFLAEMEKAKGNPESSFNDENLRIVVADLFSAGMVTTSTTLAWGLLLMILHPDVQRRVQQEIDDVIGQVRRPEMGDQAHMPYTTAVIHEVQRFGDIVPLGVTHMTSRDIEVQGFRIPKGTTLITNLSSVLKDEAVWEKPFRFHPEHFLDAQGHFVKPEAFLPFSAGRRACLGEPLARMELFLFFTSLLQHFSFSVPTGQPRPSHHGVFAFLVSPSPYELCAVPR
Cytochrome P450 2C9, sequence (P11712 whole entry): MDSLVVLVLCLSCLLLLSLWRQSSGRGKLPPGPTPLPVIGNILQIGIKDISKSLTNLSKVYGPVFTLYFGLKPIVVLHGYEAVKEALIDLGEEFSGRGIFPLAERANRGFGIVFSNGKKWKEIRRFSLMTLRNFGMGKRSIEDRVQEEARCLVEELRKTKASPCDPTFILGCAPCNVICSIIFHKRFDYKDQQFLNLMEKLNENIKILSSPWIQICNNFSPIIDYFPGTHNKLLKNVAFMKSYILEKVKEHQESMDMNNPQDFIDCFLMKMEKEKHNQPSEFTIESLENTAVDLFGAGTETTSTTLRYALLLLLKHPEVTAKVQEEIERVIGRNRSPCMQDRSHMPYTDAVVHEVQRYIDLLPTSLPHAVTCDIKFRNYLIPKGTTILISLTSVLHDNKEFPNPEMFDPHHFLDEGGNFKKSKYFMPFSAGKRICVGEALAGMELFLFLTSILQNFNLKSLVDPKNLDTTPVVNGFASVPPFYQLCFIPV
Delta-type opioid receptor, sequence (P41143 whole entry): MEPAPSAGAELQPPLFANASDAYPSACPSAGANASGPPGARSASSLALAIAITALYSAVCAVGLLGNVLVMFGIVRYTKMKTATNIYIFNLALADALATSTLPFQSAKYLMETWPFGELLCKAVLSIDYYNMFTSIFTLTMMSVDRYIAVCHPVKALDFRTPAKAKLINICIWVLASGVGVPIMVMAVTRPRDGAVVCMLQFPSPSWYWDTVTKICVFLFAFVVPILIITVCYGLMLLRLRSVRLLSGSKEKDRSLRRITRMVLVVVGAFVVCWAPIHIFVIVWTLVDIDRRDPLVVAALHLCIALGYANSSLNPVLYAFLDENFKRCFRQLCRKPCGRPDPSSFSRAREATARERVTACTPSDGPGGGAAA
Cytochrome P450 2C19, sequence (P33261 whole entry): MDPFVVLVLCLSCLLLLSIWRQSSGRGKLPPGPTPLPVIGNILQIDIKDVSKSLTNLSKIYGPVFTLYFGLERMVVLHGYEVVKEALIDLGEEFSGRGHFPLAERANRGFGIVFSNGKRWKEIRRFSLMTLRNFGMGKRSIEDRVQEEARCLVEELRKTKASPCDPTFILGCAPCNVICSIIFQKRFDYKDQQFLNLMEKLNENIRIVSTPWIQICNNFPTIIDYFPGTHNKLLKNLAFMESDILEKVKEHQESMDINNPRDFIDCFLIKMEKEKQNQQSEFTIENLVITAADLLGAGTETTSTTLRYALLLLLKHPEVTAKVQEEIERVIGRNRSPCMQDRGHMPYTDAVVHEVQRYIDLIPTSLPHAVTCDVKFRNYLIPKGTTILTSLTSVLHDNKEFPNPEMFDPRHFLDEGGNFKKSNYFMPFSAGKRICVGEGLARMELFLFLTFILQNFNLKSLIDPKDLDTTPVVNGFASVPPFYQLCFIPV
Voltage-gated inwardly rectifying potassium channel KCNH2, sequence (Q12809 whole entry): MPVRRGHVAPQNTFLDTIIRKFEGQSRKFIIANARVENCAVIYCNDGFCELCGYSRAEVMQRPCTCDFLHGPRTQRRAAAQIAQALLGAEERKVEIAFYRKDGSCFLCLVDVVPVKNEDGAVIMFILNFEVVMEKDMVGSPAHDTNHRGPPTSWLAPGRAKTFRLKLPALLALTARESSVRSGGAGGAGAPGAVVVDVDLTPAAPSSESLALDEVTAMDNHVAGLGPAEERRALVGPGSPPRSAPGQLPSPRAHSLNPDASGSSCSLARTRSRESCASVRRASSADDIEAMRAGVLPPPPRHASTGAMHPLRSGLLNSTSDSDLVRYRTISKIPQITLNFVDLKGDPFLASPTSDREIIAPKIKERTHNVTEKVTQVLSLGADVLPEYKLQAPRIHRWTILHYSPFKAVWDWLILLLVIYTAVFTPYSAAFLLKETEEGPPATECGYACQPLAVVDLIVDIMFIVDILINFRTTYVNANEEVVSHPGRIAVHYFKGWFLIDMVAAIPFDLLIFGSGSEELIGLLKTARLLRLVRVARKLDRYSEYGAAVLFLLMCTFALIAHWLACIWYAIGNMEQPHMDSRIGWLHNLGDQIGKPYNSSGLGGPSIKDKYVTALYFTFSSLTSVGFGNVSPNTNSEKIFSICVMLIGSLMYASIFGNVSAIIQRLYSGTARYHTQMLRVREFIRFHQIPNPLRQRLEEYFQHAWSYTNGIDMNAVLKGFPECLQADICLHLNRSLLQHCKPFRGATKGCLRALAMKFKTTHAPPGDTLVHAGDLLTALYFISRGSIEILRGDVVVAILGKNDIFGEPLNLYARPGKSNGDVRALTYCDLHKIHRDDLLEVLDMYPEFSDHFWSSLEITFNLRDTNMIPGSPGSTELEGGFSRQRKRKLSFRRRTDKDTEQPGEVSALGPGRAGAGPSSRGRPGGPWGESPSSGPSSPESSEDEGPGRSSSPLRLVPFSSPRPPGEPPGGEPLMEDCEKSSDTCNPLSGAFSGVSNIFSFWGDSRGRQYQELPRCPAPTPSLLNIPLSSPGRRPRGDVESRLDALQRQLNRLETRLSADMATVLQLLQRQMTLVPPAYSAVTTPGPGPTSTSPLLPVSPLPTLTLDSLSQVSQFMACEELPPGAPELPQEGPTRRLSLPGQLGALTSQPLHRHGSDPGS
Cytochrome P450 3A4, sequence (P08684 whole entry): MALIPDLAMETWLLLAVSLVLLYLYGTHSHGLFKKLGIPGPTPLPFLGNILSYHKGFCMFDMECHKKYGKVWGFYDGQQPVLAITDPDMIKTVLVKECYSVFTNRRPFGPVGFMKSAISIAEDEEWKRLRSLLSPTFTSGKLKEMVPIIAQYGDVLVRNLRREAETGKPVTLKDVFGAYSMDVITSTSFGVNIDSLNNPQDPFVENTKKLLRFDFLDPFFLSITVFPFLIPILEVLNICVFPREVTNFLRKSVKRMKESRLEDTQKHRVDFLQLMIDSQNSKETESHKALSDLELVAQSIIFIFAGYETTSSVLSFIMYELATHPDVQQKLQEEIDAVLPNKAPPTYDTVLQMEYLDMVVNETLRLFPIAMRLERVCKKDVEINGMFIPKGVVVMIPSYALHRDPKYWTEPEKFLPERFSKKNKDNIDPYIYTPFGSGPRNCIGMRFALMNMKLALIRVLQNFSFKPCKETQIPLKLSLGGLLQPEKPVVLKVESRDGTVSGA

In general, IC50 refers to the midpoint of a concentration-inhibition curve. A lower IC50 goes with greater potency. As usually defined, the solubility is the dissolved amount per volume that the medium holds. A higher solubility goes with a readily soluble substance. What is called half-life is how long it takes for the measured level to halve. Low readings indicate fast loss, high ones slow loss. One may read the Ki as a measure of affinity in units of concentration, obtained from inhibition or displacement. Lower therefore signals a stronger hold on the target. The term CC50 denotes the concentration at which the toxic effect on the cells reaches its halfway point. High values mean better tolerance by the cells, low ones harm at low concentration. Turning to `CCN(CC)CC.NC(=O)c1ccc(-c2cc(C(=O)O)cc(-n3cc(-c4ccc(C(F)(F)F)cc4)nn3)c2)cc1`, the IC50 is at least 30 µM in series [1]; at least 30 µM in [3]; at least 30 µM in series [4]; at least 30 µM in [7]; at least 30 µM in [9]; 0.166 µM in [10]. In series [11], this compound came in with an IC50 of 0.269 µM. In addition, the remaining at 2 h in series [2], in [5] and in series [8] was 94 to 100% each time. In [6], this compound had a solubility of 138 µg/mL. Also, the half-life in series [12] is 12 min. The compound further showed a Ki in series [13] of 1.47 µM. For the same compound, in series [14], the CC50 was over 30 µM.
